# Measurements: paper PMC12628652, “A Validated UPLC‐MS/MS Method for Monitoring Temozolomide and Perillyl Alcohol Metabolites in Biological Matrices: Insights From a Preclinical Pharmacokinetic Study” (Biomedical Chromatography, 2025)
# Tests used:
# [1] = set-up: method as in Ostermann et al. [2004]; conditions: ref Ostermann et al. [2004]; cited from earlier work
# [2] = Stability of analytes in rat plasma and tissue matrices (freeze-thaw, bench-top, autosampler); assay type: physicochemical; conditions: for Stability (ER %) Autosampler: 10°C for 24 h; for Stability (ER %) Bench-top: room temperature for 6 h; for Stability (ER %) Freeze/thaw: three freeze–thaw cycles over 24-h intervals
# Experimental: QC samples were prepared by spiking blank rat plasma with PA, AIC, and TMZ at three concentration levels: 30, 80, and 200 ng/mL. Internal standards (IS1 and IS2) were added to each sample at a final concentration of 100 ng/mL. Whole blood was obtained from untreated anesthetized rats that were euthanized as part of the study protocol. Blood samples were collected into heparinized tubes and centrifuged at 3500 rpm for 10 min at 20°C to separate plasma. Organs including the brain, lungs, kidneys, spleen, and liver were promptly excised and homogenized using a Marconi mechanical tissue homogenizer (5 mm probe) in phosphate‐buffered saline (PBS, pH 7.4) at a 1:5 (w/v) tissue‐to‐buffer ratio.
# For each matrix sample, 50 μL of homogenate or plasma was mixed with 50 μL of internal standard (IS) solution (100 ng/mL), followed by the addition of the respective working solution to reach the target analyte concentration. The volume was adjusted to 1 mL using an appropriate solvent mixture. Samples were centrifuged again at 3500 rpm for 10 min at 4°C. The resulting supernatants were filtered through 0.22 μm membrane filters prior to chromatographic analysis. All calibration standards and QC samples were prepared freshly on the day of analysis to minimize analyte degradation.
# The stability of PA, AIC, and TMZ in rat plasma was assessed under the following conditions using low, medium, and high QC levels: (1) Freeze–thaw stability: Three freeze–thaw cycles over 24‐h intervals; (2) Bench‐top stability: Storage at room temperature for 6 h; (3) Autosampler stability: Storage at 10°C for 24 h. Analytes were considered stable if the relative error (RE%) remained within ±15% (Tiwari and Tiwari [2010]).
# [3] = rat brain homogenate, 200 ng/mL
# [4] = rat kidney homogenate, 30 ng/mL
# [5] = rat kidney homogenate, 80 ng/mL
# [6] = rat kidney homogenate, 200 ng/mL
# [7] = rat liver homogenate, 200 ng/mL
# [8] = rat spleen homogenate, 30 ng/mL
# [9] = rat spleen homogenate, 80 ng/mL
# [10] = rat spleen homogenate, 200 ng/mL
compound,measurement,setting,value
"Cn1nnc2c(C(N)=O)ncn2c1=O [TMZ, Temozolomide]",share of the plasma concentration reaching brain tissues,[1],~ 20%
same,Stability (ER %) Autosampler,"[2]; rat brain homogenate, 30 ng/mL",1.65%
same,Stability (ER %) Bench-top,"[2]; rat brain homogenate, 30 ng/mL",1.48%
same,Stability (ER %) Freeze/thaw,"[2]; rat brain homogenate, 30 ng/mL",9.76%
same,Stability (ER %) Autosampler,"[2]; rat brain homogenate, 80 ng/mL",1.89%
same,Stability (ER %) Bench-top,"[2]; rat brain homogenate, 80 ng/mL",7.73%
same,Stability (ER %) Freeze/thaw,"[2]; rat brain homogenate, 80 ng/mL",0.84%
same,Stability (ER %) Autosampler,[2]; [3],4.29%
same,Stability (ER %) Bench-top,[2]; [3],2.32%
same,Stability (ER %) Freeze/thaw,[2]; [3],4.42%
same,Stability (ER %) Autosampler,[2]; [4],1.41%
same,Stability (ER %) Bench-top,[2]; [4],1.99%
same,Stability (ER %) Freeze/thaw,[2]; [4],3.69%
same,Stability (ER %) Autosampler,[2]; [5],3.14%
same,Stability (ER %) Bench-top,[2]; [5],8.22%
same,Stability (ER %) Freeze/thaw,[2]; [5],9.44%
same,Stability (ER %) Autosampler,[2]; [6],4.92%
same,Stability (ER %) Bench-top,[2]; [6],3.77%
same,Stability (ER %) Freeze/thaw,[2]; [6],4.52%
same,Stability (ER %) Autosampler,"[2]; rat liver homogenate, 30 ng/mL",3.82%
same,Stability (ER %) Bench-top,"[2]; rat liver homogenate, 30 ng/mL",1.49%
same,Stability (ER %) Freeze/thaw,"[2]; rat liver homogenate, 30 ng/mL",5.67%
same,Stability (ER %) Autosampler,"[2]; rat liver homogenate, 80 ng/mL",4.07%
same,Stability (ER %) Bench-top,"[2]; rat liver homogenate, 80 ng/mL",6.41%
same,Stability (ER %) Freeze/thaw,"[2]; rat liver homogenate, 80 ng/mL",8.17%
same,Stability (ER %) Autosampler,[2]; [7],3.33%
same,Stability (ER %) Bench-top,[2]; [7],1.57%
same,Stability (ER %) Freeze/thaw,[2]; [7],1.54%
same,Stability (ER %) Autosampler,"[2]; rat lung homogenate, 30 ng/mL",4.82%
same,Stability (ER %) Bench-top,"[2]; rat lung homogenate, 30 ng/mL",7.99%
same,Stability (ER %) Freeze/thaw,"[2]; rat lung homogenate, 30 ng/mL",6.24%
same,Stability (ER %) Autosampler,"[2]; rat lung homogenate, 80 ng/mL",3.02%
same,Stability (ER %) Bench-top,"[2]; rat lung homogenate, 80 ng/mL",9.32%
same,Stability (ER %) Freeze/thaw,"[2]; rat lung homogenate, 80 ng/mL",7.19%
same,Stability (ER %) Autosampler,"[2]; rat lung homogenate, 200 ng/mL",2.51%
same,Stability (ER %) Bench-top,"[2]; rat lung homogenate, 200 ng/mL",5.54%
same,Stability (ER %) Freeze/thaw,"[2]; rat lung homogenate, 200 ng/mL",1.34%
same,Stability (ER %) Autosampler,"[2]; rat plasma, 30 ng/mL",12.84%
same,Stability (ER %) Bench-top,"[2]; rat plasma, 30 ng/mL",1.39%
same,Stability (ER %) Freeze/thaw,"[2]; rat plasma, 30 ng/mL",3.94%
same,Stability (ER %) Autosampler,"[2]; rat plasma, 80 ng/mL",5.39%
same,Stability (ER %) Bench-top,"[2]; rat plasma, 80 ng/mL",3.94%
same,Stability (ER %) Freeze/thaw,"[2]; rat plasma, 80 ng/mL",4.29%
same,Stability (ER %) Autosampler,"[2]; rat plasma, 200 ng/mL",13.24%
same,Stability (ER %) Bench-top,"[2]; rat plasma, 200 ng/mL",1.94%
same,Stability (ER %) Freeze/thaw,"[2]; rat plasma, 200 ng/mL",9.83%
same,Stability (ER %) Autosampler,[2]; [8],2.64%
same,Stability (ER %) Bench-top,[2]; [8],6.41%
same,Stability (ER %) Freeze/thaw,[2]; [8],5.86%
same,Stability (ER %) Autosampler,[2]; [9],2.61%
same,Stability (ER %) Bench-top,[2]; [9],1.35%
same,Stability (ER %) Freeze/thaw,[2]; [9],1.35%
same,Stability (ER %) Autosampler,[2]; [10],2.22%
same,Stability (ER %) Bench-top,[2]; [10],1.05%
same,Stability (ER %) Freeze/thaw,[2]; [10],3.86%
